Assay results reported in patent publication US20090226398A1, “ANTI-VIRAL COMPOUNDS, COMPOSITIONS, AND METHODS OF USE” (Genelabs Technologies, Inc., priority 2008, published 2009).
pEC50: −log10 of the molar value.

These molecules were tested on HCV replication (assay: Replicon Assay (Huh-lucubineo-ET cells, luciferase readout)). Details: Hepatitis C virus; ET (Huh-lucubineo-ET) HCV replicon cell line; luciferase activity 48-72 hours after compound addition; 6 dilutions.
Assay type: cell-based
Method: A cell line, ET (Huh-lucubineo-ET) was used for screening of compounds of the present invention for inhibition of HCV replication. The ET cell line was stably transfected with RNA transcripts harboring a I389luc-ubi-neo/NS3-3′/ET; replicon with firefly luciferase-ubiquitin-neomycin phosphotransferase fusion protein and EMCV-IRES driven NS3-5B polyprotein containing the cell culture adaptive mutations (E1202G; T1280I; K1846T) (Krieger at al, 2001 and unpublished). The ET cells were grown in DMEM, supplemented with 10% fetal calf serum, 2 mM Glutamine, Penicillin (100 IU/mL)/Streptomycin (100 μg/mL), 1× nonessential amino acids, and 250 μg/mL G418 (“Geneticin”). They were all available through Life Technologies (Bethesda, Md.). The cells were plated at 0.5−1.0×10^4 cells/well in the 96 well plates and incubated for 24 hrs before adding the test compounds. The compounds were then added to the cells to achieve a final concentration of 5 or 50 μM. Luciferase activity was measured 48-72 hours later by adding a lysis buffer and the substrate (Catalog number Glo-lysis buffer E2661 and Bright-Glo luciferase system E2620 Promega, Madison, Wis.). Cells should not be too confluent during the assay. Percent inhibition of replication was plotted relative to no compound control. For EC50 (effective concentration at which 50% of the maximum inhibition is observed) determinations, 6 dilutions of each compound were used. Compounds were typically diluted 3 fold to span a concentration range of 250 fold. EC50 and similarly TC50 values were calculated by fitting % inhibition at each concentration to the following equation:
% inhibition=100%/[(EC50/[I])^b+1]
where b is Hill's coefficient.
`Fc1ccccc1-c1nc2cnn(Cc3ccc(OC(F)(F)F)cc3)cc-2n1` [Compound 101, 2-(2-Fluoro-phenyl)-5-(4-trifluoromethoxy-benzyl)-5H-imidazo[4,5-d]pyridazine] gave a pEC50 of no more than 4.30.
Molecule `Fc1ccccc1-c1nc2cnn(Cc3ccc(Cl)cc3)cc-2n1` [Compound 102, 5-(4-Chloro-benzyl)-2-(2-fluoro-phenyl)-5H-imidazo[4,5-d]pyridazine] has a pEC50 of no more than 4.30.
Work on `Fc1cccc(-c2nc3cnn(Cc4ccc(-c5ccc(C(F)(F)F)cc5C(F)(F)F)nn4)cc-3n2)c1F` [Compound 104, 5-[6-(2,4-Bis-trifluoromethyl-phenyl)-pyridazin-3-ylmethyl]-2-(2,3-difluoro-phenyl)-5H-imidazo[4,5-d]pyridazine] yielded a pEC50 of 7.22.
Work on `COc1ccc(-c2ccc(Cn3cc4nc(-c5cccc(F)c5F)nc-4cn3)nn2)cc1` [Compound 105, 2-(2,3-Difluoro-phenyl)-5-[6-(4-methoxy-phenyl)-pyridazin-3-ylmethyl]-5H-imidazo[4,5-d]pyridazine] yielded a pEC50 of 5.13.
For `CCCOc1ccc(-c2ccc(Cn3cc4nc(-c5cccc(F)c5F)nc-4cn3)cc2)cc1` [Compound 109, 2-(2,3-Difluoro-phenyl)-5-(4′-propoxy-biphenyl-4-ylmethyl)-5H-imidazo[4,5-d]pyridazine], the pEC50 was 4.52.
`CCCCc1ccc(-c2ccc(Cn3cc4nc(-c5cccc(F)c5F)nc-4cn3)nn2)cc1` [Compound 115, 5-[6-(4-Butyl-phenyl)-pyridazin-3-ylmethyl]-2-(2,3-difluoro-phenyl)-5H-imidazo[4,5-d]pyridazine] showed a pEC50 of 5.83.
Molecule `Fc1cccc(-c2nc3cnn(Cc4ccc(-c5ccc(C(F)(F)F)cc5)nn4)cc-3n2)c1F` [Compound 116, 2-(2,3-Difluoro-phenyl)-5-[6-(4-trifluoromethyl-phenyl)-pyridazin-3-ylmethyl]-5H-imidazo[4,5-d]pyridazine] has a pEC50 of no more than 4.30.
With `Fc1cccc(-c2nc3cnn(Cc4ccc(-c5ccc(OC(F)(F)F)cc5)nn4)cc-3n2)c1F` [Compound 119, 2-(2,3-Difluoro-phenyl)-5-[6-(4-trifluoromethoxy-phenyl)-pyridazin-3-ylmethyl]-5H-imidazo[4,5-d]pyridazine] the pEC50 was 5.51.
`Fc1cccc(-c2nc3cnn(Cc4ccc(-c5ccc(C(F)(F)F)cc5C(F)(F)F)cn4)cc-3n2)c1F` [Compound 129, 5-[5-(2,4-Bis-trifluoromethyl-phenyl)-pyridin-2-ylmethyl]-2-(2,3-difluoro-phenyl)-5H-imidazo[4,5-d]pyridazine] gave a pEC50 of 7.72.
`Fc1cccc(-c2nc3cnn(Cc4ccc(-c5ccc(C(F)(F)F)cc5C(F)(F)F)nc4)cc-3n2)c1F` [Compound 130, 5-[6-(2,4-Bis-trifluoromethyl-phenyl)-pyridin-3-ylmethyl]-2-(2,3-difluoro-phenyl)-5H-imidazo[4,5-d]pyridazine] was tested, and the pEC50 was 8.10.
In the case of `COc1ccc(-c2ccc(Cn3cc4nc(-c5cccc(F)c5F)nc-4cn3)c([N+](=O)[O-])c2)c(C(F)(F)F)c1` [Compound 201, 2-(2,3-Difluoro-phenyl)-5-(4-methoxy-3-nitro-2-trifluoromethyl-biphenyl-4-ylmethyl)-5H-imidazo[4,5-d]pyridazine], the pEC50 was 7.30.
`COc1cccc(-c2ccc(Cn3cc4nc(-c5cccc(F)c5F)nc-4cn3)nn2)c1OC` [Compound 202, 2-(2,3-Difluoro-phenyl)-5-[6-(2,3-dimethoxy-phenyl)-pyridazin-3-ylmethyl]-5H-imidazo[4,5-d]pyridazine] was tested, and the pEC50 was no more than 4.30.
`Fc1cccc(-c2nc3cnn(Cc4ccc(-c5ccc(-c6cn[nH]c6)cc5C(F)(F)F)nn4)cc-3n2)c1F` [Compound 203, 2-(2,3-Difluoro-phenyl)-5-{6-[4-(1H-pyrazol-4-yl)-2-trifluoromethyl-phenyl]-pyridazin-3-ylmethyl}-5H-imidazo[4,5-d]pyridazine] gave a pEC50 of 4.68.
For `Fc1cccc(-c2nc3cnn(Cc4ccc(-c5ccc(-c6cccnc6)cc5C(F)(F)F)nn4)cc-3n2)c1F` [Compound 204, 2-(2,3-Difluoro-phenyl)-5-[6-(4-pyridin-3-yl-2-trifluoromethyl-phenyl)-pyridazin-3-ylmethyl]-5H-imidazo[4,5-d]pyridazine], the pEC50 was 6.18.
With `Fc1cccc(-c2nc3cnn(Cc4ccc(-c5ccc(-c6ccccc6)cc5C(F)(F)F)nn4)cc-3n2)c1F` [Compound 205, 2-(2,3-Difluoro-phenyl)-5-[6-(3-trifluoromethyl-biphenyl-4-yl)-pyridazin-3-ylmethyl]-5H-imidazo[4,5-d]pyridazine] the pEC50 was 6.85.
With `CCc1ccc(-c2ccc(Cn3cc4nc(-c5cccc(F)c5F)nc-4cn3)nn2)cc1` [Compound 206, 2-(2,3-Difluoro-phenyl)-5-[6-(4-ethyl-phenyl)-pyridazin-3-ylmethyl]-5H-imidazo[4,5-d]pyridazine] the pEC50 was no more than 4.30.
With `COc1ccc(-c2ccc(Cn3cc4nc(-c5cccc(F)c5F)nc-4cn3)nn2)c(OC)c1` [Compound 207, 2-(2,3-Difluoro-phenyl)-5-[6-(2,4-dimethoxy-phenyl)-pyridazin-3-ylmethyl]-5H-imidazo[4,5-d]pyridazine] the pEC50 was no more than 4.30.
In the case of `CC(C)Cc1ccc(-c2ccc(Cn3cc4nc(-c5cccc(F)c5F)nc-4cn3)nn2)cc1` [Compound 208, 2-(2,3-Difluoro-phenyl)-5-[6-(4-isobutyl-phenyl)-pyridazin-3-ylmethyl]-5H-imidazo[4,5-d]pyridazine], the pEC50 was no more than 4.30.
`CC(C)Oc1ccc(-c2ccc(Cn3cc4nc(-c5cccc(F)c5F)nc-4cn3)nn2)cc1` [Compound 209, 2-(2,3-Difluoro-phenyl)-5-[6-(4-isopropoxy-phenyl)-pyridazin-3-ylmethyl]-5H-imidazo[4,5-d]pyridazine] gave a pEC50 of no more than 4.30.
`Fc1cccc(-c2nc3cnn(Cc4ccc(-c5ccc(-c6ccncc6)cc5C(F)(F)F)nn4)cc-3n2)c1F` [Compound 210, 2-(2,3-Difluoro-phenyl)-5-[6-(4-pyridin-4-yl-2-trifluoromethyl-phenyl)-pyridazin-3-ylmethyl]-5H-imidazo[4,5-d]pyridazine] was tested, and the pEC50 was 6.13.
Work on `Cc1ccc(-c2ccc(Cn3cc4nc(-c5cccc(F)c5F)nc-4cn3)nn2)cc1` [Compound 211, 2-(2,3-Difluoro-phenyl)-5-(6-p-tolyl-pyridazin-3-ylmethyl)-5H-imidazo[4,5-d]pyridazine] yielded a pEC50 of 5.46.
Work on `COc1ccc(-c2ccc(Cn3cc4nc(-c5ccccc5F)nc-4cn3)cn2)c(C(F)(F)F)c1` [Compound 212, 2-(2-Fluoro-phenyl)-5-[6-(4-methoxy-2-trifluoromethyl-phenyl)-pyridin-3-ylmethyl]-5H-imidazo[4,5-d]pyridazine] yielded a pEC50 of 7.09.
For `COCc1ccc(-c2ccc(Cn3cc4nc(-c5cccc(F)c5F)nc-4cn3)nn2)cc1` [Compound 213, 2-(2,3-Difluoro-phenyl)-5-[6-(4-methoxymethyl-phenyl)-pyridazin-3-ylmethyl]-5H-imidazo[4,5-d]pyridazine], the pEC50 was no more than 4.30.
For `CC(C)(C)OCc1ccc(-c2ccc(Cn3cc4nc(-c5cccc(F)c5F)nc-4cn3)nn2)cc1` [Compound 214, 5-[6-(4-tert-Butoxymethyl-phenyl)-pyridazin-3-ylmethyl]-2-(2,3-difluoro-phenyl)-5H-imidazo[4,5-d]pyridazine], the pEC50 was 4.32.
`CC(C)(C)c1ccc(-c2ccc(Cn3cc4nc(-c5cccc(F)c5F)nc-4cn3)nn2)cc1` [Compound 215, 5-[6-(4-tert-Butyl-phenyl)-pyridazin-3-ylmethyl]-2-(2,3-difluoro-phenyl)-5H-imidazo[4,5-d]pyridazine] gave a pEC50 of 4.94.
`Cn1ccc2cc(-c3ccc(Cn4cc5nc(-c6cccc(F)c6F)nc-5cn4)nn3)ccc21` [Compound 216, 2-(2,3-Difluoro-phenyl)-5-[6-(1-methyl-1H-indol-5-yl)-pyridazin-3-ylmethyl]-5H-imidazo[4,5-d]pyridazine] was tested, and the pEC50 was no more than 4.30.
Work on `CCOC(=O)CCc1ccc(-c2ccc(Cn3cc4nc(-c5cccc(F)c5F)nc-4cn3)nn2)cc1` [Compound 217, 3-(4-{6-[2-(2,3-Difluoro-phenyl)-imidazo[4,5-d]pyridazin-5-ylmethyl]-pyridazin-3-yl}-phenyl)-propionic acid ethyl ester] yielded a pEC50 of 4.28.
`COc1cccc(-c2ccc(Cn3cc4nc(-c5cccc(F)c5F)nc-4cn3)nn2)c1` [Compound 218, 2-(2,3-Difluoro-phenyl)-5-[6-(3-methoxy-phenyl)-pyridazin-3-ylmethyl]-5H-imidazo[4,5-d]pyridazine] was tested, and the pEC50 was no more than 4.30.
`Fc1cccc(-c2nc3cnn(Cc4ccc(-c5ccc6c(c5)OCO6)nn4)cc-3n2)c1F` [Compound 219, 5-(6-Benzo[1,3]dioxol-5-yl-pyridazin-3-ylmethyl)-2-(2,3-difluoro-phenyl)-5H-imidazo[4,5-d]pyridazine] gave a pEC50 of no more than 4.30.
For `CCCc1ccc(-c2ccc(Cn3cc4nc(-c5cccc(F)c5F)nc-4cn3)nn2)cc1` [Compound 220, 2-(2,3-Difluoro-phenyl)-5-[6-(4-propyl-phenyl)-pyridazin-3-ylmethyl]-5H-imidazo[4,5-d]pyridazine], the pEC50 was 6.28.
Molecule `Cc1cccc(-c2ccc(Cn3cc4nc(-c5cccc(F)c5F)nc-4cn3)nn2)c1` [Compound 221, 2-(2,3-Difluoro-phenyl)-5-(6-m-tolyl-pyridazin-3-ylmethyl)-5H-imidazo[4,5-d]pyridazine] has a pEC50 of no more than 4.30.
